Here are results for one compound from patent US12054509B2, “Antimicrobial compounds, compositions, and uses thereof” (Lakewood Amedex, Inc., priority 2017, dated 2024).

Type in all cases: cell-based
For test [1], the system named is methicillin susceptible S. aureus (ATCC 29213). The experiment in a line: Bacterial cytological profiling at pH 4, 5.5, 7 (Example 8), S. aureus. The following applies: for cell permeability / cell viability: pH 4. How it is done:
(§1) This bacterial cytological profiling (BCP) investigation uses methods and materials described previously by Nonejuie, P., Burkart, M., Poglianoa, K., Pogiano, J. (2013). Bacterial cytological profiling rapidly identifies the cellular pathways targeted by antibacterial molecules. Proc. Natl. Acad. Sci. U.S.A. 110(40):16169-16174. doi: 10.1073/pnas.1311066110.
(§2) For viable cell counts, cells are grown to OD600≈0.4 and diluted 1:1 into buffered or unbuffered media containing various compound concentrations. Samples are then collected and serially diluted (1:10) on a 96 well plate. Five microliters from each well are spotted on LB plates, incubated at 30° C., and viable cells are counted the next day.
(§3) Samples are collected at 10, 30, 120, and 240 min of exposure for viable cell count and imaging. For imaging, E. coli and S. aureus 200 μL of treated cells per time point are stained with 0.8 μg/mL FM4-64, 1.5 μg/mL DAPI, and 0.4 μM SYTOXGreen (Molecular Probes/Invitrogen). P. aeruginosa samples are stained 0.4 μM SYTOX Green, 28 μg/mL DAN, and 1 μg/mL FM 4-64. Cells are transferred to an agarose pad (20% LB, 1% agarose) for imaging.
(§4) For Nu-3 and Nu-8 stocks (at pH 4, 5.5 and 7), stock concentration is 500 mg/mL. For pH 4, the stocks are prepared by dissolving Nu-3 in 25 mM citrate buffer and Nu-8 in 350 mM citric acid. For pH 5.5, the stocks are prepared by dissolving Nu-3 in 25 mM citric-phosphate and Nu-8 in 25 mM critic. For pH 7, the stocks are prepared by dissolving Nu-3 and Nu-8 in 25 mM Sorensen phosphate buffer. 2×LB (lysogeny broth) solutions are prepared with 50 mM citrate buffer for pH 4, 50 mM citrate-phosphate buffer for pH 5.5, and 50 mM Sorensen phosphate buffer for pH 7.

Another test relates to E. coli. Put plainly: MIC broth microdilution (CLSI) at incremental pH, E. coli. The following applies: Escherichia coli. How it is done:
MIC testing is conducted using the broth (Mueller Hinton Broth) microdilution procedures relevant to each organism group as established by the Clinical and Laboratory Standards Institute (CLSI; 3-7). MIC plates are prepared in accordance with CLSI (3-7). To prepare the test plates, automated liquid handlers are used to conduct serial dilutions and liquid transfers. Automated liquid handlers utilized in this study include the Multidrop 384 (Labsystems, Helsinki, Finland) and the Biomek 2000 (Beckman Coulter, Fullerton CA). The solution is diluted to desired pH using 1 M Citric Acid or 1 M NaOH buffer. A standardized inoculum of each test organism is prepared per CLSI methods (3, 5-7) to equal a 0.5 McFarland standard in the appropriate media followed by an additional 1:20 dilution (1:10 for anaerobes).
The plates are then inoculated with 10 μL of the diluted 0.5 McFarland suspension using the Biomek 2000 from low to high drug concentration, resulting in a final concentration of approximately 5×10^5 CFU/mL per well. An un-inoculated plate is incubated for the purpose of assessing solubility of the drug in the test media. The plates are stacked 3 to 4 high, covered with a sterile lid on the top plate, and incubated for 18 to 24 hours according to CLSI. The MIC is recorded as the lowest concentration of respective compound that inhibited visible growth of the organism.

Test [2] concerns wild type P. aeruginosa (PAO1; K2732). The experiment in a line: Bacterial cytological profiling at pH 4, 5.5, 7 (Example 8), P. aeruginosa. How it is done: as §1, §2, §3, §4
The test system of the next test is Haemophilus influenzae. Put plainly: MIC at pH 3.5 (CLSI, Mueller-Hinton broth). To be noted: 5 isolates.

The structures appear in SMILES notation.

Turning to `CCCCOP(=O)(O)OC[C@H]1O[C@@H](n2ccc(N)nc2=O)C[C@@H]1OP(=O)(O)OCCCC` [Nu-8, sodium ((2R,3S,5R)-5-(4-amino-2-oxopyrimidin-1(2H)-yl)-3-((butoxyoxidophosphor-yl)oxy)tetrahydrofuran-2-yl)methyl butyl phosphate], the cell permeability was less than 4.3% in test [1] (125 mg/mL); roughly 60% in test [1] (250 mg/mL); roughly 37% in test [2] (pH 7, 225 mg/mL, 10 min). Also, the cell viability is given as 10^3 CFU/mL in test [1] (125 mg/mL, by 240 min, from 10^7.5 CFU/mL at study start) and ~10^4 CFU/mL in test [1] (250 mg/mL, within 10 min). Moreover, the cell growth entry in test [1] (pH 5.5 and 7, 125 mg/mL and 250 mg/mL, up to 24 h) is “slightly reduce cell growth”; in test [2] (pH 5.5 and 7, 112.5 mg/mL), “reduction in cell growth”. Also, the MIC in the test with E. coli (pH 1) is 9.8 mg/mL; with E. coli (pH 3) it was 37.5 mg/mL; in the test with E. coli (pH 4), 75 mg/mL; against E. coli (pH 5), greater than 75 mg/mL; against E. coli (pH 7), greater than 75 mg/mL; in the test with Haemophilus influenzae, 4.69 to 9.38 mg/mL. In addition, the “increase/change in cell permeability” value in test [2] (pH 5.5 and 7, 112.5 mg/mL) was less than 20%.
